What was measured:
IFN1 gene expression = experiment: IFN gene set expression (RNA-sequencing) in healthy volunteers, Compound A versus placebo, day 14; assay type: in vivo
Description: (§1) A study was conducted to assess IFN1 gene expression in healthy volunteers administered a regimen of Compound A. The data set consists of 48 subjects with transcriptome-wide RNA-sequencing data collected for each subject per time-point. For each subject, time points included a pre-dose at day 1, a pre-dose at day 14, and a 4 hour post-day 14 dose. A Wald test was used to assess the association of the various doses at post-dose day 14 versus placebo. To assess potentially off target effects, a secondary transcriptome-wide analysis was performed. Multiple test correction was completed using a Benjamini-Hochberg cutoff of 0.05 within the primary and secondary analyses separately.
For example FIG. 4 and FIG. 5 show dose-dependent median IFN gene expression levels over time for HERC5, IFI27, IFIT1, RSAD2. […] As shown in FIG. 6 and FIG. 7, SIGLEC1 was decreased after a 14-day regimen of treatment with Compound A.

[1] = IFN gene expression in healthy volunteers after 7 days 40 mg Compound A twice daily versus placebo; assay type: in vivo; conditions: gene CETP, 40 mg twice daily, versus placebo, healthy volunteers
Description: (§2) A study was conducted to assess IFN1 gene expression in healthy volunteers administered a regimen of Compound A. The data set consists of 48 subjects with transcriptome-wide RNA-sequencing data collected for each subject per time-point. […] […] To assess potentially off target effects, a secondary transcriptome-wide analysis was performed. Multiple test correction was completed using a Benjamini-Hochberg cutoff of 0.05 within the primary and secondary analyses separately.

IFN gene expression = experiment: as above; assay type: in vivo
Description: as §2

[2] = test system: transcriptome-wide gene expression; experiment: Secondary transcriptome-wide analysis for potentially off target effects, day 14 4 hour post-treatment versus placebo; assay type: in vivo, healthy volunteers
Description: as §1

In the case of [2H]C([2H])([2H])CC(=O)c1cnc(NC(=O)C2CC2)cc1Nc1cccc(-c2ncn(C([2H])([2H])[2H])n2)c1OC [Compound A, N-(4-((2-Methoxy-3-(1-(methyl-d3)-1H-1,2,4-triazol-3-yl)phenyl)amino)-5-(propanoyl-3,3,3-d3)pyridin-2-yl)cyclopropanecarboxamide], the “association of Compound A with SIGLEC1 gene expression (Wald test)” value (IFN1 gene expression; after 14 days of treatment versus placebo, Table 2) is reported as “significant association”, the “median IFN gene expression levels for HERC5, IFI27, IFIT1, RSAD2” value (IFN1 gene expression; after 14 days, versus placebo, FIG. 4 and FIG. 5, healthy volunteers) is reported as “substantial decrease” and the “median gene expression levels for SIGLEC1” value (IFN1 gene expression; after a 14-day regimen, versus placebo, FIG. 6 and FIG. 7, healthy volunteers) is reported as “decreased”. For the same compound, the “log2FoldChange CXCL10” value (IFN1 gene expression; gene CXCL10, after 14 days of treatment versus placebo, healthy volunteers) was −1.589, the “log2FoldChange EPSTI1” value (IFN1 gene expression; gene EPSTI1, after 14 days of treatment versus placebo, healthy volunteers) was −0.2266 and the “log2FoldChange IFI27” value (IFN1 gene expression; gene IFI27, after 14 days of treatment versus placebo, healthy volunteers) was −1.082. For the same compound, the “log2FoldChange IFI44” value (IFN1 gene expression; gene IFI44, after 14 days of treatment versus placebo, healthy volunteers) was −0.3773, the “log2FoldChange IFI44L” value (IFN1 gene expression; gene IFI44L, after 14 days of treatment versus placebo, healthy volunteers) was −1.043 and the “log2FoldChange IFIT1” value (IFN1 gene expression; gene IFIT1, after 14 days of treatment versus placebo, healthy volunteers) was −1.676. For the same compound, the “log2FoldChange ISG15” value (IFN1 gene expression; gene ISG15, after 14 days of treatment versus placebo, healthy volunteers) was −0.8721, the “log2FoldChange ISG20” value (IFN1 gene expression; gene ISG20, after 14 days of treatment versus placebo, healthy volunteers) was 0.08851 and the “log2FoldChange MX1” value (IFN1 gene expression; gene MX1, after 14 days of treatment versus placebo, healthy volunteers) was −1.438. The “log2FoldChange OAS1” value (IFN1 gene expression; gene OAS1, after 14 days of treatment versus placebo, healthy volunteers) was −0.1127, the “log2FoldChange OAS2” value (IFN1 gene expression; gene OAS2, after 14 days of treatment versus placebo, healthy volunteers) was −0.008935 and the “log2FoldChange OAS3” value (IFN1 gene expression; gene OAS3, after 14 days of treatment versus placebo, healthy volunteers) was −0.7134. The “log2FoldChange RSAD2” value (IFN1 gene expression; gene RSAD2, after 14 days of treatment versus placebo, healthy volunteers) was −0.4713, the “log2FoldChange SIGLEC1” value (IFN1 gene expression; gene SIGLEC1, after 14 days of treatment versus placebo, healthy volunteers) was −3.579 and the “log2FoldChange SPATS2L” value (IFN1 gene expression; gene SPATS2L, after 14 days of treatment versus placebo, healthy volunteers) was −0.5117. The “log2FoldChange CETP” value [1] was 1.503, the “rank of SIGLEC1 among differentially expressed genes, treated versus placebo” value (IFN gene expression; 40 mg twice daily, Table 3) was “top differentially expressed gene” and the “log2FoldChange CHRM3” value (IFN gene expression; gene CHRM3, 40 mg twice daily, versus placebo, healthy volunteers) was −1.521. The “log2FoldChange HJURP” value (IFN gene expression; gene HJURP, 40 mg twice daily, versus placebo, healthy volunteers) was 1.007, the “log2FoldChange OSM” value (IFN gene expression; gene OSM, 40 mg twice daily, versus placebo, healthy volunteers) was 1.157 and the “log2FoldChange SIGLEC1” value (IFN gene expression; gene SIGLEC1, 40 mg twice daily, versus placebo, healthy volunteers) was −3.626. For the same compound, the “log2FoldChange SOCS3” value (IFN gene expression; gene SOCS3, 40 mg twice daily, versus placebo, healthy volunteers) was 1.421, the “log2FoldChange SYN2” value (IFN gene expression; gene SYN2, 40 mg twice daily, versus placebo, healthy volunteers) was 2.239 and the “log2FoldChange CDNF” value ([2]; gene CDNF, secondary analysis) was 1.185. For the same compound, the “log2FoldChange ENSG00000288643” value ([2]; gene ENSG00000288643, secondary analysis) was −1.541, the “log2FoldChange IFI6” value ([2]; gene IFI6, secondary analysis) was −1.206 and the “log2FoldChange IFIT1” value ([2]; gene IFIT1, secondary analysis) was −1.676. The “log2FoldChange JPH4” value ([2]; gene JPH4, secondary analysis) was −1.043, the “log2FoldChange LRP1” value ([2]; gene LRP1, secondary analysis) was −1.314 and the “log2FoldChange LRRC75B” value ([2]; gene LRRC75B, secondary analysis) was −1.205. For the same compound, the “log2FoldChange MX1” value ([2]; gene MX1, secondary analysis) was −1.438, the “log2FoldChange SIGLEC1” value ([2]; gene SIGLEC1, secondary analysis) was −3.579 and the “off target associations after multiple test corrections” value ([2]; transcriptome-wide, Table 4) was “no significant off target associations”.
